Experimental data as given in patent US11053204B2, “Pyrimidinyloxy benzene derivatives as herbicides” (FMC Corporation, priority 2015, dated 2021).

What was measured:
Format in all cases: in vivo
[1] = system: lambsquarters (Chenopodium album); test: Test C preemergence, plant response rating; conditions: scale 0 to 100; for Lambsquarters plant response rating: preemergence
Method in brief: (§1)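 Both timings shared one formulation, a non-phytotoxic solvent mixture with surfactant, and a greenhouse period of 13 to 15 d. Preemergence used seeded loam/sand or silt loam soil, postemergence used 2 to 18 cm plants; visual ratings ran from 0 (no effect) to 100 (complete control).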

[2] = system: wheat (winter wheat, Triticum aestivum); test: Test C preemergence, plant response rating; conditions: scale 0 to 100; for Wheat plant response rating: preemergence
Method in brief: as §1

[3] = system: ryegrass, Italian (Italian ryegrass, Lolium multiflorum); test: Test C preemergence, plant response rating; conditions: scale 0 to 100; for Ryegrass, Italian plant response rating: preemergence
Method in brief: as §1

[4] = system: ragweed (common ragweed, Ambrosia elatior); test: Test C preemergence, plant response rating; conditions: scale 0 to 100; for Ragweed plant response rating: preemergence
Method in brief: as §1

[5] = system: blackgrass (Alopecurus myosuroides); test: Test C preemergence, plant response rating; conditions: scale 0 to 100; for Blackgrass plant response rating: preemergence
Method in brief: as §1

[6] = system: morningglory (Ipomoea coccinea); test: Test C preemergence, plant response rating; conditions: scale 0 to 100; for Morningglory plant response rating: preemergence
Method in brief: as §1

[7] = system: foxtail, giant (giant foxtail, Setaria faberii); test: Test C preemergence, plant response rating; conditions: scale 0 to 100; for Foxtail, Giant plant response rating: preemergence
Method in brief: as §1

[8] = system: crabgrass, large (large crabgrass, Digitaria sanguinalis); test: Test C preemergence, plant response rating; conditions: scale 0 to 100; for Crabgrass, Large plant response rating: preemergence
Method in brief: as §1

[9] = system: oilseed rape (Brassica napus); test: Test C preemergence, plant response rating; conditions: scale 0 to 100; for Oilseed Rape plant response rating: preemergence
Method in brief: as §1

corn (Zea mays) = test: Test C preemergence, plant response rating; conditions: scale 0 to 100; for Corn plant response rating: preemergence
Method in brief: as §1

soybean (Glycine max) = test: Test C preemergence, plant response rating; conditions: scale 0 to 100; for Soybean plant response rating: preemergence
Method in brief: as §1

[10] = system: nutsedge, yellow (yellow nutsedge, Cyperus esculentus); test: Test C preemergence, plant response rating; conditions: scale 0 to 100; for Nutsedge, Yellow plant response rating: preemergence
Method in brief: as §1

[11] = system: waterhemp (common waterhemp, Amaranthus rudis); test: Test C preemergence, plant response rating; conditions: scale 0 to 100; for Waterhemp plant response rating: preemergence
Method in brief: as §1

[12] = system: velvetleaf (Abutilon theophrasti); test: Test C preemergence, plant response rating; conditions: scale 0 to 100; for Velvetleaf plant response rating: preemergence
Method in brief: as §1

[13] = system: morningglory (Ipomoea coccinea); test: Test C postemergence, plant response rating; conditions: Ipomoea, post-emergence
Description: (§2) Seeds of plant species selected from blackgrass (Alopecurus myosuroides), ryegrass, Italian (Italian ryegrass, Lolium multiflorum), wheat (winter wheat, Triticum aestivum), galium (catchweed bedstraw, Galium aparine), corn (Zea mays), crabgrass, large (large crabgrass, Digitaria sanguinalis), foxtail, giant (giant foxtail, Setaria faberii), johnsongrass (Sorghum halepense), lambsquarters (Chenopodium album), morningglory (Ipomoea coccinea), nutsedge, yellow (yellow nutsedge, Cyperus esculentus), pigweed (Amaranthus retroflexus), ragweed (common ragweed, Ambrosia elatior), soybean (Glycine max), barnyardgrass (Echinochloa crus-galli), oilseed rape (Brassica napus), pigweed, palmer (palmer pigweed, Amaranthus palmeri), waterhemp (common waterhemp, Amaranthus rudis), velvetleaf (Abutilon theophrasti), kochia (Kochia scoparia), surinam grass (Brachiaria decumbens), nightshade (eastern black nightshade, Solanum ptycanthum), wild poinsettia (Euphorbia heterophylla), windgrass (Apera spica-venti), and oat, wild (wild oat Avena fatua), were planted into a blend of loam soil and sand or a silt loam soil and treated preemergence with test chemicals formulated in a non-phytotoxic solvent mixture which included a surfactant.
(§3) At the same time, plants selected from these crop and weed species and also chickweed (common chickweed, Stellaria media), buckwheat, wild (wild buckwheat, Polygonum convolvulus), wild mustard (Sinapis arvensis), field poppy (Papaver rhoeas), field violet (Viola arvensis), geranium, cutleaf (cutleaf geranium, Geranium dissectum), Canada thistle (Cirsium arvense), and speedwell (bird's-eye speedwell, Veronica persica), were planted in pots containing Sunshine Redi-Earth® planting medium comprising spaghnum peat moss, vermiculite, starter nutrients and dolomitic limestone and treated with postemergence applications of test chemicals formulated in the same manner. Plants ranged in height from 2 to 18 cm (1- to 4-leaf stage) for postemergence treatments. Treated plants and controls were maintained in a greenhouse for 13 to 15 d, after which time all species were compared to controls and visually evaluated. Plant response ratings, summarized in Table C, are based on a scale of 0 to 100 where 0 is no effect and 100 is complete control. A dash (-) response means no test result.

[14] = system: foxtail, giant (giant foxtail, Setaria faberii); test: Test C postemergence, plant response rating; conditions: Setaria faberi, post-emergence
Description: as §2, §3

[15] = system: chickweed (common chickweed, Stellaria media); test: Test C postemergence, plant response rating; conditions: Stellaria media, post-emergence
Description: as §2, §3

[16] = system: barnyardgrass (Echinochloa crus-galli); test: Test B flooded paddy test, plant response rating; conditions: Echinochloa crus-galli, 312 h; 250 g ai/ha; Flood; scale of 0 to 100 where 0 is no effect and 100 is complete control; 13 to 15 days
Method in brief: (§4)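 Under a constant 3 cm flood, test compounds went directly into the paddy water. Following 13 to 15 days of greenhouse growth, treated species and controls were compared by eye.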

[17] = system: ducksalad (Heteranthera limosa); test: Test B flooded paddy test, plant response rating; conditions: Heteranthera limosa, 312 h; 250 g ai/ha; Flood; scale of 0 to 100 where 0 is no effect and 100 is complete control; 13 to 15 days
Method in brief: as §4

rice (Oryza sativa) = test: Test B flooded paddy test, plant response rating; conditions: Oryza sativa, 312 h; 250 g ai/ha; Flood; scale of 0 to 100 where 0 is no effect and 100 is complete control; 13 to 15 days
Method in brief: as §4

[18] = system: sedge, umbrella (small-flower umbrella sedge, Cyperus difformis); test: Test B flooded paddy test, plant response rating; conditions: Cyperus difformis, 312 h; 250 g ai/ha; Flood; scale of 0 to 100 where 0 is no effect and 100 is complete control; 13 to 15 days
Method in brief: as §4

## CCCOC(=O)c1c(Br)cccc1Oc1ncc(Cl)cn1 [Compound 13, propyl 2-bromo-6-[(5-chloro-2-pyrimidinyl)oxy]benzoate]
[1]; Chenopodium album, pre-emergence, Preemergence, 16 g ai/ha
  pest or weed control at 16 g/ha: 50%
[1]; Chenopodium album, pre-emergence, Preemergence, 31 g ai/ha
  pest or weed control at 31 g/ha: 15%
[1]; 4 g ai/ha
  Lambsquarters plant response rating: 0
[1]; 8 g ai/ha
  Lambsquarters plant response rating: 5
[2]; Triticum aestivum, pre-emergence, Preemergence, 16 g ai/ha
  plant injury at 16 g/ha: 0%
[2]; Triticum aestivum, pre-emergence, Preemergence, 31 g ai/ha
  plant injury at 31 g/ha: 5%
[2]; 4 g ai/ha
  Wheat plant response rating: 0
[2]; 8 g ai/ha
  Wheat plant response rating: 0
[3]; Lolium multiflorum, pre-emergence, Preemergence, 16 g ai/ha
  pest or weed control at 16 g/ha: 0%
[3]; Lolium multiflorum, pre-emergence, Preemergence, 31 g ai/ha
  pest or weed control at 31 g/ha: 0%
[3]; 4 g ai/ha
  Ryegrass, Italian plant response rating: 0
[3]; 8 g ai/ha
  Ryegrass, Italian plant response rating: 0
[4]; Ambrosia artemisiifolia, pre-emergence, Preemergence, 16 g ai/ha
  pest or weed control at 16 g/ha: 0%
[4]; Ambrosia artemisiifolia, pre-emergence, Preemergence, 31 g ai/ha
  pest or weed control at 31 g/ha: 10%
[4]; 4 g ai/ha
  Ragweed plant response rating: 0
[4]; 8 g ai/ha
  Ragweed plant response rating: 0
[5]; Alopecurus myosuroides, pre-emergence, Preemergence, 16 g ai/ha
  pest or weed control at 16 g/ha: 0%
[5]; Alopecurus myosuroides, pre-emergence, Preemergence, 31 g ai/ha
  pest or weed control at 31 g/ha: 0%
[5]; 4 g ai/ha
  Blackgrass plant response rating: 0
[5]; 8 g ai/ha
  Blackgrass plant response rating: 0
[6]; Ipomoea, pre-emergence, Preemergence, 16 g ai/ha
  pest or weed control at 16 g/ha: 5%
[6]; Ipomoea, pre-emergence, Preemergence, 31 g ai/ha
  pest or weed control at 31 g/ha: 5%
[6]; 4 g ai/ha
  Morningglory plant response rating: 0
[6]; 8 g ai/ha
  Morningglory plant response rating: 0
[7]; Setaria faberi, pre-emergence, Preemergence, 16 g ai/ha
  pest or weed control at 16 g/ha: 0%
[7]; Setaria faberi, pre-emergence, Preemergence, 31 g ai/ha
  pest or weed control at 31 g/ha: 95%
[7]; 4 g ai/ha
  Foxtail, Giant plant response rating: 0
[7]; 8 g ai/ha
  Foxtail, Giant plant response rating: 0
[8]; Digitaria sanguinalis, pre-emergence, Preemergence, 16 g ai/ha
  pest or weed control at 16 g/ha: 60%
[8]; Digitaria sanguinalis, pre-emergence, Preemergence, 31 g ai/ha
  pest or weed control at 31 g/ha: 85%
[8]; 4 g ai/ha
  Crabgrass, Large plant response rating: 25
[8]; 8 g ai/ha
  Crabgrass, Large plant response rating: 30
[9]; Brassica napus, pre-emergence, Preemergence, 16 g ai/ha
  plant injury at 16 g/ha: 0%
[9]; Brassica napus, pre-emergence, Preemergence, 31 g ai/ha
  plant injury at 31 g/ha: 50%
[9]; 4 g ai/ha
  Oilseed Rape plant response rating: 0
[9]; 8 g ai/ha
  Oilseed Rape plant response rating: 0
Corn (Zea mays); Zea mays, pre-emergence, Preemergence, 16 g ai/ha
  Corn plant response rating (crop injury, 0 = no effect, 100 = complete kill) at 16 g/ha: 5%
Corn (Zea mays); Zea mays, pre-emergence, Preemergence, 31 g ai/ha
  Corn plant response rating (crop injury, 0 = no effect, 100 = complete kill) at 31 g/ha: 10%
Corn (Zea mays); 4 g ai/ha
  Corn plant response rating: 0
Corn (Zea mays); 8 g ai/ha
  Corn plant response rating: 0
Soybean (Glycine max); Glycine max, pre-emergence, Preemergence, 16 g ai/ha
  plant injury at 16 g/ha: 5%
Soybean (Glycine max); Glycine max, pre-emergence, Preemergence, 31 g ai/ha
  plant injury at 31 g/ha: 5%
Soybean (Glycine max); 4 g ai/ha
  Soybean plant response rating: 0
Soybean (Glycine max); 8 g ai/ha
  Soybean plant response rating: 0
[10]; Cyperus, pre-emergence, Preemergence, 16 g ai/ha
  pest or weed control at 16 g/ha: 0%
[10]; Cyperus, pre-emergence, Preemergence, 31 g ai/ha
  pest or weed control at 31 g/ha: 5%
[10]; 4 g ai/ha
  Nutsedge, Yellow plant response rating: 0
[10]; 8 g ai/ha
  Nutsedge, Yellow plant response rating: 0
[11]; Amaranthus tuberculatus, pre-emergence, Preemergence, 16 g ai/ha
  pest or weed control at 16 g/ha: 80%
[11]; Amaranthus tuberculatus, pre-emergence, Preemergence, 31 g ai/ha
  pest or weed control at 31 g/ha: 100%
[11]; 4 g ai/ha
  Waterhemp plant response rating: 5
[11]; 8 g ai/ha
  Waterhemp plant response rating: 10
[12]; Abutilon theophrasti, pre-emergence, Preemergence, 16 g ai/ha
  pest or weed control at 16 g/ha: 20%
[12]; Abutilon theophrasti, pre-emergence, Preemergence, 31 g ai/ha
  pest or weed control at 31 g/ha: 70%
[12]; 4 g ai/ha
  Velvetleaf plant response rating: 5
[12]; 8 g ai/ha
  Velvetleaf plant response rating: 10
[13]; 4 g ai/ha, scale of 0 to 100
  pest or weed control at 4 g/ha: 5%
[13]; 8 g ai/ha, scale of 0 to 100
  pest or weed control at 8 g/ha: 5%
[13]; 16 g ai/ha, scale 0 to 100
  pest or weed control at 16 g/ha: 20%
[13]; 31 g ai/ha, scale 0 to 100
  pest or weed control at 31 g/ha: 30%
[14]; 4 g ai/ha, scale of 0 to 100
  pest or weed control at 4 g/ha: 5%
[14]; 8 g ai/ha, scale of 0 to 100
  pest or weed control at 8 g/ha: 5%
[14]; 16 g ai/ha, scale 0 to 100
  pest or weed control at 16 g/ha: 10%
[14]; 31 g ai/ha, scale 0 to 100
  pest or weed control at 31 g/ha: 25%
[15]; 4 g ai/ha, scale of 0 to 100
  pest or weed control at 4 g/ha: 5%
[15]; 8 g ai/ha, scale of 0 to 100
  pest or weed control at 8 g/ha: 5%
[15]; 16 g ai/ha, scale 0 to 100
  pest or weed control at 16 g/ha: 40%
[15]; 31 g ai/ha, scale 0 to 100
  pest or weed control at 31 g/ha: 70%
[16]
  pest or weed control at 250 g/ha: 0%
[17]
  pest or weed control at 250 g/ha: 70%
Rice (Oryza sativa)
  plant injury at 250 g/ha: 30%
[18]
  pest or weed control at 250 g/ha: 75%
